In US11771692B2, “N-hydroxyethyl didehydroazapodophyllotoxins as GBP1 inhibitors and methods of overcoming treatment resistance in cancer” (The Board of Trustees of the Leland Stanford Junior …, priority 2018, dated 2023):
Entries after “also recorded” stand apart in the source; their conditions may differ. Where two headings read alike, the source gives them in different places.

What was measured:
[1] = tested on: MCF7; experiment: MTT cytotoxicity assay, MCF7; type: cell-based; conditions: Homo sapiens, Breast
Description: (§1) It was observed that SU093 was highly cytotoxic for all cell lines tested with IC50 values in the nanomolar range.

[2] = tested on: OVCAR8; experiment: MTT cytotoxicity assay, OVCAR8; type: cell-based; conditions: Homo sapiens, OVCAR-8, Ovarian
Protocol: as §1
(§2) Furthermore, OVCAR8 cells with overexpressed (OV) and knockdown (KD) of GBP1 gene were created (FIG. 3, panel D) and cell viability experiments were performed on GBP1-WT (wild-type), GBP1-OV and GBP1-KD OVCAR8 cells at different doses of SU093.

[3] = tested on: GBP1; experiment: Confocal microscopy of GBP1 and β-tubulin in SCC-90 cells; type: cell-based; conditions: SCC-90, SU093 50 nM, 6 h
Description: (§3) The potential for GBP1 inhibition and radiosensitzation in head and neck cancer cells was also investigated.

[4] = tested on: GBP1; experiment: Confocal microscopy immunostaining of GBP1 and β-tubulin in OVCAR8 cells; type: cell-based; conditions: OVCAR8, 1 nM SU093 for 6 h
[5] = Maximum tolerable dose study, 14 days IP; type: in vivo, mice
Protocol: (§4) FIG. 7, panel A illustrates in vivo PK studies, C57BL/6 mice. Drug concentration in plasma was quantified at different time points using LCMS after a single IP injection of SU093. FIG. 7, panel B illustrates the drug concentration in harvested ovaries and liver of C57BL/6 mice after 14 days of administration with SU093 (100 mg/kg) by daily IP injection.
To determine the maximum tolerable dose of an exemplary GBP1 inhibitor, SU093 was administered to C57BL6 female mice (n=10) intraperitoneally at 100 mg/kg for 14 days. […] At the end of the 14th day, mice were sacrificed and organs were harvested.

[6] = tested on: SSC-90; experiment: MTT cytotoxicity assay, SSC-90; type: cell-based; conditions: Head and Neck, SSC-90, MTT assay
Description: as §1

[7] = tested on: OVCAR8-PRes cells; experiment: Growth inhibition of paclitaxel-resistant OVCAR8-PRes cells; type: cell-based
Description: The cytotoxic effect of SU093 and paclitaxel combination treatment was also studied (FIG. 5, panel E).

[8] = tested on: GBP1; experiment: cell-based reporter assay, OVCAR-8 stably transfected with GBP-1-luciferase; conditions: OVCAR-8 GBP-1-luciferase
Description: Exemplary compounds (1)-(17) and previously identified compound SU093 (Andreoli, M., Persico, M.; Kumar, A.; Orteca, N.; Kumar, V.; Pepe, A.; Mahalingam, S.; Alegria, A. E.; Petrella, L.; Sevciunaite, L.; Camperchioli, A.; Mariani, M.; Di Dato, A.; Novellino, E.; Scambia, G., Malhotra, S. V.; Ferlini, C.; Fattorusso, C., Identification of the First Inhibitor of the GBP1:PIM1 Interaction. Implications for the Development of a New Class of Anticancer Agents against Paclitaxel Resistant Cancer Cells. Journal of Medicinal Chemistry 2014, 57 (19), 7916-7932) were tested for GBP1 inhibition using a cell-based reporter assay in ovarian cancer cell line OVCAR-8 stably transfected with GBP-1-luciferase. Tables 1 and 2 below outlines the percentage of GBP1 expression in OVCAR-8 cells for each of the 17 compounds tested.

[9] = tested on: OVCAR8 cells; experiment: Active mitochondrial mass (MitoTracker Red CMXRos) in OVCAR8 cells; type: cell-based
Description: FIG. 4, panel A illustrates a histogram of cell cycle distribution of propidium iodide (PI)-stained cells. […] FIG. 4, panel C illustrates the effect of SU093 on cell cycle and cell death regulators analyzed by immunostaining. FIG. 4, panel D illustrates mitochondria stained with MitoTracker Red CMXRos and visualized by confocal microscopy indicating mitochondrial dysfunction in OVCAR8 cells. FIG. 4, panel E illustrates the effect of SU093 on active mitochondrial mass in OVCAR8 cells.
as §2

[10] = In vivo pharmacokinetics, plasma concentration by LCMS; conditions: C57BL/6, mouse, C57BL6 female mice, single 10 mg/kg IP
Protocol: as §4
To investigate the pharmacokinetics and toxicity of the subject GBP1 inhibitors, in vivo pharmacokinetic studies with SU093 were conducted and the drug concentration in mice plasma at different time points after injection was determined (e.g. after 5, 10, 30, 60, 120, 360 minutes after injection). Non-tumor-bearing C57BL6 female mice (n=3/group of each time point) were used for these studies and the drug was administered in a single dose of 10 mg/kg intrepertoneally (IP) at different time points. After each time point 150 microliters of blood was withdraw from retro orbital sinus from the respective group of anesthetized (isoflurane) mice. Plasma was separated from each blood sample and mixed with an equal volume of acetonitrile (w/v). Precipitated protein was separated by centrifugation at 12,000 RPM for 10 min at 4° C. Clear supernatant was analyzed for quantification of SU093 using liquid chromatography mass spectroscopy (LCMS).

[11] = tested on: SCC-90 cells; experiment: Cell cycle analysis of SCC-90 cells, SU093/radiation combination; type: cell-based; conditions: SCC-90, SU093 50 nM and/or 10 Gy, 24 h
Description: as §3

[12] = tested on: HEK293; experiment: MTT cytotoxicity assay, normal HEK293 cells; type: cell-based
Description: FIG. 3, panels A-E. FIG. 3, panel A illustrates the effects of SU093 on survival of human normal HEK293 cell line and ovarian cancer cell lines OVCAR8 & SKOV3 cells via MTT assay. FIG. 3, panel B illustrates the effect of SU093 on GBP1 and PIM1 expression in OVCAR8 cells. […] FIG. 3, panel D illustrates quantification of overexpression and knockdown of GBP1 gene in stably transfected OVCAR8 cells. FIG. 3, panel E illustrates cytotoxicity of SU093 as evaluated in GBP1-OV, GBP1-WT and GBP1-KD OVCAR8 via MTT assay.
as §2

**Q.** Which IC50 [1] does the source give for `COc1ccc2c(c1)N(CCO)C1=C(C(=O)OC1)C2c1ccccc1` (stereo not drawn) [SU093] here?
**A.** The IC50 was 6.23 nM.

**Q.** And the IC50 [2]?
**A.** The IC50 was 2.49 nM.

**Q.** What about the “GBP1 nuclear translocation and β-tubulin expression” value [3] of the same compound?
**A.** Its value is “inhibits the nuclear translocation of GBP1 protein and reduces the tubulin expression; also recorded: blocking its nuclear translocation and reducing β-tubulin expression”.

**Q.** And the “GBP1 nuclear translocation and tubulin expression” value [4]?
**A.** Its value is “inhibits the nuclear translocation of GBP1 protein and reduces the tubulin expression; also recorded: blocking its nuclear translocation and reducing tubulin expression”.

**Q.** And the CHEM-22 panel analysis ([5]; 100 mg/kg for 14 days)?
**A.** Its CHEM-22 panel analysis is “only acute liver toxicity”.

**Q.** And the “weight loss or sign of toxicity” value ([5]; C57BL6 female mice, 100 mg/kg IP, 14 days)?
**A.** The value was “no significant weight loss or sign of toxicity”.

**Q.** What about the concentration at 14 days ([5]; female, C57BL/6, mouse, ovaries, intraperitoneal, 100 mg/kg daily IP, after 14 days, LCMS, read-out: concentration in the target organ (ovaries)) of the same compound?
**A.** Its concentration at 14 days is 3730 ng/mL.

**Q.** And the IC50 [6]?
**A.** The IC50 was 3.23 nM.

**Q.** What about the inhibition at 0.015 µM ([7]; 15 nM SU093, read-out: inhibition in the cell growth) of the same compound?
**A.** Its inhibition at 0.015 µM is 50%.

**Q.** What about the inhibition at 0.015 µM ([7]; SU093 (15 nM) and paclitaxel (2 μM), read-out: growth inhibition, combination treatment) of the same compound?
**A.** The inhibition at 0.015 µM was 80%.

**Q.** And the “% GBP1 expression OVCAR-8 @5 nM” value ([8]; 5 nM)?
**A.** Its value is 60.3%.

**Q.** And the “% GBP1 expression OVCAR-8 @10 nM” value ([8]; 10 nM)?
**A.** The value was 51.0%.

**Q.** And the active mitochondrial mass [9]?
**A.** Its active mitochondrial mass is “significantly diminished active mitochondrial mass”.

**Q.** And the Cmax [10]?
**A.** The Cmax was 1600 ng/mL.

**Q.** And the Tmax [10]?
**A.** The Tmax was 5 min.

**Q.** What about the half-life [10] of the same compound?
**A.** Its half-life is 60 min.

**Q.** What about the “cell cycle, SU093/radiation combination” value [11] of the same compound?
**A.** The value was “G2/M phase arrest followed by cell death; also recorded: increase in G2/M phase arrest, followed by apoptosis”.

**Q.** And the “cytotoxicity for normal cell line” value [12]?
**A.** The value was “no cytotoxicity”.
